Converted amounts (≈) assume the structure as drawn.
Legend:
Assay type in all cases: cell-based
P. aeruginosa = assay: Broth dilution MIC determination (CLSI) against P. aeruginosa strains
Source text: (§1) Minimum inhibitory concentrations (MICs) for macrolides described herein have been determined for unique strains of S. aureus, S. pneumoniae, S. pyogenes, E. faecalis, E. coli, A. baumannii, K. pneumoniae, P. aeruginosa, and H. influenzae, including several multidrug-resistant strains, with a special focus on macrolide resistant mechanisms. Azithromycin and solithromycin were included as control compounds. CLSI standard procedures for broth dilution MIC determination were used. Data for exemplary compounds described herein is shown in Tables M1-M7 and in Tables N1-N4.

A. baumannii = assay: Broth dilution MIC determination (CLSI) against A. baumannii strains
Source text: as §1

E. coli = assay: Broth dilution MIC determination (CLSI) against E. coli strains
Source text: as §1

S. aureus = assay: Broth dilution MIC determination (CLSI) against S. aureus strains
Source text: as §1

K. pneumoniae = assay: Broth dilution MIC determination (CLSI) against K. pneumoniae strains
Source text: as §1, with “used.” for “used. Data for exemplary compounds described herein is shown in Tables M1-M7 and in Tables N1-N4.”

S. pyogenes = assay: Broth dilution MIC determination (CLSI) against S. pyogenes strains
Source text: as §1

E. faecalis = assay: Broth dilution MIC determination (CLSI) against E. faecalis strains
Source text: as §1

S. pneumoniae = assay: Broth dilution MIC determination (CLSI) against S. pneumoniae strains
Source text: as §1

[1] = P. aeruginosa ATCC27853, strain MP-3 (Table N4)
[2] = P. aeruginosa PAO1, strain MP-7 (Table N4)
[3] = P. aeruginosa mex-oprM-deletion, strain MP-8 (Table N4)
[4] = A. baumannii ATCC 19606, strain MP-15 (Table N4)
[5] = A. baumannii Clinical-AZT low, strain MP-577 (Table N4)
[6] = A. baumannii Clinical-MDR, strain MP-576 (Table N4)
[7] = E. coli ATCC25922, strain MP-4 (Table N4)
[8] = E. coli Clinical, strain MP-541 (Table N4)
[9] = E. coli clinical-cErmB, strain MP-532 (Table N4)
[10] = E. coli tolC, strain MP-9 (Table N4)
[11] = S. aureus ATCC29213, strain MP-12 (Table N4)
[12] = S. aureus BAA 977 iErm, strain MP-17 (Table N4)
[13] = S. aureus Clinical-cErm, strain MP-513 (Table N4)
[14] = S. aureus USA300-msr(a), strain MP-549 (Table N4)
[15] = K. pneumoniae ATCC 10031, strain MP-14 (Table N4)
[16] = K. pneumoniae Clinical, strain MP-548 (Table N4)
[17] = K. pneumoniae Clinical-MDR, strain MP-546 (Table N4)

## CCC1OC(=O)C(C)C(=O)C(C)C(OC2OC(C)CC(N3CCC(O)C3)C2O)C(C)(OC)CC(C)CNC(C)C2N(CCCCn3cc(-c4cccc(N)c4)nn3)C(=O)OC12C (stereo not drawn) [FSM-120417]
P. aeruginosa; [1]
  MIC: >64 µg/mL
P. aeruginosa; [2]
  MIC: >64 µg/mL
P. aeruginosa; [3]
  MIC: 32 µg/mL (≈ 36.8 µM)
A. baumannii; [4]
  MIC: 32 µg/mL (≈ 36.8 µM)
A. baumannii; [5]
  MIC: 32 µg/mL (≈ 36.8 µM)
A. baumannii; [6]
  MIC: >64 µg/mL
E. coli; [7]
  MIC: 16 µg/mL (≈ 18.4 µM)
E. coli; [8]
  MIC: 16 µg/mL (≈ 18.4 µM)
E. coli; [9]
  MIC: >64 µg/mL
E. coli; [10]
  MIC: 2 µg/mL (≈ 2.3 µM)
S. aureus; [11]
  MIC: 32 µg/mL (≈ 36.8 µM)
S. aureus; [12]
  MIC: 64 µg/mL (≈ 73.6 µM)
S. aureus; [13]
  MIC: >64 µg/mL
S. aureus; [14]
  MIC: 64 µg/mL (≈ 73.6 µM)
K. pneumoniae; [15]
  MIC: 4 µg/mL (≈ 4.6 µM)
K. pneumoniae; [16]
  MIC: 64 µg/mL (≈ 73.6 µM)
K. pneumoniae; [17]
  MIC: >64 µg/mL

## CCC1OC(=O)C(C)C(=O)C(C)C(OC2OC(C)CC(n3ccnc3)C2O)C(C)(OC)CC(C)CNC(C)C2N(CCCCn3cc(-c4cccc(N)c4)nn3)C(=O)OC12C (stereo not drawn) [FSM-120394]
S. pyogenes; ATCC19615, Strain No. MP-19
  MIC S. pyogenes ATCC19615: 0.5 µg/mL (≈ 0.588 µM)
S. pyogenes; mac resistant, Strain No. MP-625 UNT-014
  MIC S. pyogenes mac resistant: 4 µg/mL (≈ 4.7 µM)
P. aeruginosa; ATCC27853, Strain No. MP-3
  MIC P. aeruginosa ATCC27853: >64 µg/mL
P. aeruginosa; PAO1, Strain No. MP-7
  MIC P. aeruginosa PAO1: >64 µg/mL
P. aeruginosa; PAO1:mex, Strain No. MP-8
  MIC P. aeruginosa PAO1:mex: >64 µg/mL
A. baumannii; ATCC19606, Strain No. MP-15
  MIC A. baumannii ATCC19606: 64 µg/mL (≈ 75.2 µM)
A. baumannii; Strain No. MP576
  MIC A. baumannii clinical: >64 µg/mL
A. baumannii; Strain No. MP577
  MIC A. baumannii clinical: >64 µg/mL
E. faecalis; ATCC29212, Strain No. MP-24
  MIC E. faecalis ATCC29212: 4 µg/mL (≈ 4.7 µM)
E. faecalis; van resistant, Strain No. UNT-039
  MIC E. faecalis van resistant: >64 µg/mL
E. coli; ATCC25922, Strain No. MP-4
  MIC E. coli ATCC25922: >64 µg/mL
E. coli; ATCC25922:tolC, Strain No. MP-9
  MIC E. coli ATCC25922:tolC: 16 µg/mL (≈ 18.8 µM)
E. coli; clinical, Strain No. MP541
  MIC E. coli clinical: >64 µg/mL
E. coli; clinical-cErm, Strain No. MP532
  MIC E. coli clinical-cErm: >64 µg/mL
S. pneumoniae; ATCC49619, Strain No. MP-21
  MIC S. pneumoniae ATCC49619: 0.5 µg/mL (≈ 0.588 µM)
S. pneumoniae; Strain No. MP-626 UNT-038
  MIC S. pneumoniae mefA: 0.5 µg/mL (≈ 0.588 µM)
S. pneumoniae; Strain No. MP-627 UNT-039
  MIC S. pneumoniae mefA: 0.25 µg/mL (≈ 0.294 µM)
S. aureus; ATCC29213, Strain No. MP-12
  MIC S. aureus ATCC29213: >64 µg/mL
S. aureus; ATCCBAA-977, Strain No. MP-17
  MIC S. aureus ATCCBAA-977: >64 µg/mL
S. aureus; GISA USA600, Strain No. MP-619 UNT-120
  MIC S. aureus (MRSA) GISA USA600: >64 µg/mL
S. aureus; ST-228 cErm, Strain No. MP-513
  MIC S. aureus (MRSA) ST-228 cErm: >64 µg/mL
S. aureus; USA100, Strain No. MP-618 UNT-096
  MIC S. aureus (MRSA) USA100: >64 µg/mL
S. aureus; USA300, Strain No. MP-549
  MIC S. aureus (MRSA) USA300: >64 µg/mL
S. aureus; ermA phenotype, Strain No. MP-620 UNT-146
  MIC S. aureus (MRSA) ermA phenotype: >64 µg/mL
K. pneumoniae; ATCC10031, Strain No. MP-14
  MIC K. pneumoniae ATCC10031: 16 µg/mL (≈ 18.8 µM)
K. pneumoniae; Strain No. MP546
  MIC K. pneumoniae clinical: >64 µg/mL
K. pneumoniae; Strain No. MP548
  MIC K. pneumoniae clinical: >64 µg/mL

## CCC1OC(=O)C(C)C(=O)C(C)C(OC2OC(C)CC(N3CCC(O)C3)C2O)C(C)(OC)CC(C)CNC(C)C2N(CCCCn3cc(-c4cccc(N)c4)nn3)C(=O)OC12C (stereo not drawn) [FSM-120416]
P. aeruginosa; [1]
  MIC: >64 µg/mL
P. aeruginosa; [2]
  MIC: >64 µg/mL
P. aeruginosa; [3]
  MIC: >64 µg/mL
A. baumannii; [4]
  MIC: >64 µg/mL
A. baumannii; [5]
  MIC: >64 µg/mL
A. baumannii; [6]
  MIC: >64 µg/mL
E. coli; [7]
  MIC: >64 µg/mL
E. coli; [8]
  MIC: >64 µg/mL
E. coli; [9]
  MIC: >64 µg/mL
E. coli; [10]
  MIC: 8 µg/mL (≈ 9.19 µM)
S. aureus; [11]
  MIC: >64 µg/mL
S. aureus; [12]
  MIC: >64 µg/mL
S. aureus; [13]
  MIC: >64 µg/mL
S. aureus; [14]
  MIC: >64 µg/mL
K. pneumoniae; [15]
  MIC: 32 µg/mL (≈ 36.8 µM)
K. pneumoniae; [16]
  MIC: >64 µg/mL
K. pneumoniae; [17]
  MIC: >64 µg/mL

## CCC1OC(=O)C(C)C(=O)C(C)C(OC2OC(C)CC(N(C)CCCS(C)(=O)=O)C2O)C(C)(OC)CC(C)CN(C)C(C)C2N(CCCCn3cc(-c4cccc(N)c4)nn3)C(=O)OC12C (stereo not drawn) [FSM-120421]
P. aeruginosa; [1]
  MIC: >64 µg/mL
P. aeruginosa; [2]
  MIC: >64 µg/mL
P. aeruginosa; [3]
  MIC: >64 µg/mL
A. baumannii; [4]
  MIC: >64 µg/mL
A. baumannii; [5]
  MIC: >64 µg/mL
A. baumannii; [6]
  MIC: >64 µg/mL
E. coli; [7]
  MIC: >64 µg/mL
E. coli; [8]
  MIC: >64 µg/mL
E. coli; [9]
  MIC: >64 µg/mL
E. coli; [10]
  MIC: 64 µg/mL (≈ 67.5 µM)
S. aureus; [11]
  MIC: >64 µg/mL
S. aureus; [12]
  MIC: >64 µg/mL
S. aureus; [13]
  MIC: >64 µg/mL
S. aureus; [14]
  MIC: >64 µg/mL
K. pneumoniae; [15]
  MIC: 64 µg/mL (≈ 67.5 µM)
K. pneumoniae; [16]
  MIC: >64 µg/mL
K. pneumoniae; [17]
  MIC: >64 µg/mL

Reference: US11535643B2, “Macrolides with modified desosamine sugars and uses thereof” (President and Fellows of Harvard College, priority 2015, dated 2022)
